From the supplement of paper PMC9663587

Tests used:
[1] = compound: CCc1cnn2c(NCc3ccc[n+]([O-])c3)cc(N3CCCC[C@H]3CCO)nc12
LEE011/Ribociclib [2] = compound: T1, CN(C)C(=O)c1cc2cnc(Nc3ccc(N4CCNCC4)cn3)nc2n1C1CCCC1 [LEE011/Ribociclib]
Doxorubicin = compound: COc1cccc2c1C(=O)c1c(O)c3c(c(O)c1C2=O)C[C@@](O)(C(=O)CO)C[C@@H]3O[C@H]1C[C@H](N)[C@H](O)[C@H](C)O1 [Doxorubicin]
Pictilisib/GDC0941 = compound: CS(=O)(=O)N1CCN(Cc2cc3nc(-c4cccc5[nH]ncc45)nc(N4CCOCC4)c3s2)CC1 [Pictilisib/GDC0941]
Ceritinib/LDK378 = compound: Cc1cc(Nc2ncc(Cl)c(Nc3ccccc3S(=O)(=O)C(C)C)n2)c(OC(C)C)cc1C1CCNCC1 [Ceritinib/LDK378]
[3] = compound: Cc1nn(C)c(COc2ccc(N3CCN(S(=O)(=O)N(C)C)CC3)cc2)c1-c1cccc2c(CCCOc3cccc4ccccc34)c(C(=O)O)n(CCN3CCOCC3)c12
YKL-5-124 = compound: C=CC(=O)Nc1ccc(C(=O)Nc2[nH]nc3c2CN(C(=O)N[C@H](CN(C)C)c2ccccc2)C3(C)C)cc1 [YKL-5-124]; experiment: increase in dead-cell fraction, 72 h; higher = more death;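 further: breast cancer cell lines in 384-well plates, stained with Hoechst plus LIVE/DEAD far red dye and imaged, cells above an LDR intensity threshold counted dead, Hoechst-negative corpses included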
BSJ-03-123 = compound: CC(=O)c1c(C)c2cnc(Nc3ccc(N4CCN(CCOCCOCCOCCNC(=O)COc5cccc6c5C(=O)N(C5CCC(=O)NC5=O)C6=O)CC4)cn3)nc2n(C2CCCC2)c1=O [BSJ-03-123]; experiment: as above
[4] = compound: CC(=O)c1c(C)c2cnc(Nc3ccc(N4CCNCC4)cn3)nc2n(C2CCCC2)c1=O; experiment: as above
[5] = compound: CCN1CCN(Cc2ccc(Nc3ncc(F)c(-c4cc(F)c5nc(C)n(C(C)C)c5c4)n3)nc2)CC1; experiment: as above
Neratinib/HKI272 = compound: CCOc1cc2ncc(C#N)c(Nc3ccc(OCc4ccccn4)c(Cl)c3)c2cc1NC(=O)/C=C/CN(C)C [Neratinib/HKI272]; experiment: as above
[6] = compound: CCc1cnn2c(NCc3ccc[n+]([O-])c3)cc(N3CCCC[C@H]3CCO)nc12; experiment: as above
LEE011/Ribociclib [7] = compound: T1, LEE011/Ribociclib; experiment: as above
THZ531 = compound: CN(C)C/C=C/C(=O)Nc1ccc(C(=O)N2CCC[C@@H](Nc3ncc(Cl)c(-c4c[nH]c5ccccc45)n3)C2)cc1 [THZ531]; experiment: as above
THZ1 = compound: CN(C)C/C=C/C(=O)Nc1ccc(C(=O)Nc2cccc(Nc3ncc(Cl)c(-c4c[nH]c5ccccc45)n3)c2)cc1 [THZ1]; experiment: as above
Flavopiridol = compound: CN1CC[C@H](c2c(O)cc(O)c3c(=O)cc(-c4ccccc4Cl)oc23)[C@H](O)C1 [Flavopiridol]; experiment: as above
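Wherever GR50, 72 h is given: breast cancer and non-malignant breast epithelial cell lines, Deep Dye Drop or Dye Drop imaging, nine half-log doses, GR normalized to time-zero plates and DMSO-only controls.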

Cell Line: SUM185PE
- GR50, 72 h [1]: 0.0261 µM
- GR50, 72 h (LEE011/Ribociclib [2]): > 10 µM
- GR50, 72 h (Doxorubicin): > 3.16 µM
- GR50, 72 h (Pictilisib/GDC0941): 0.127 µM
- GR50, 72 h (Ceritinib/LDK378): 0.983 µM
- GR50, 72 h [3]: > 10 µM
- increase in dead-cell fraction (YKL-5-124; 0.001 µM): 0.0052
- increase in dead-cell fraction (YKL-5-124; 0.003162 µM): 0.0479
- increase in dead-cell fraction (YKL-5-124; 0.01 µM): 0.037
- increase in dead-cell fraction (YKL-5-124; 0.03162 µM): 0.0467
- increase in dead-cell fraction (YKL-5-124; 0.1 µM): 0.0495
- increase in dead-cell fraction (YKL-5-124; 0.3162 µM): 0.0156
- increase in dead-cell fraction (YKL-5-124; 1 µM): 0.067
- increase in dead-cell fraction (YKL-5-124; 3.162 µM): 0.121
- increase in dead-cell fraction (YKL-5-124; 10 µM): 0.148
- increase in dead-cell fraction (BSJ-03-123; 0.001 µM): -0.0024
- increase in dead-cell fraction (BSJ-03-123; 0.003162 µM): -0.0357
- increase in dead-cell fraction (BSJ-03-123; 0.01 µM): 0.0044
- increase in dead-cell fraction (BSJ-03-123; 0.03162 µM): 0.0319
- increase in dead-cell fraction (BSJ-03-123; 0.1 µM): 0.0144
- increase in dead-cell fraction (BSJ-03-123; 0.3162 µM): -0.0016
- increase in dead-cell fraction (BSJ-03-123; 1 µM): 0.0213
- increase in dead-cell fraction (BSJ-03-123; 3.162 µM): 0.0264
- increase in dead-cell fraction (BSJ-03-123; 10 µM): 0.0146
- increase in dead-cell fraction ([4]; 0.0003162 µM): 0.0082
- increase in dead-cell fraction ([4]; 0.001 µM): 0.0038
- increase in dead-cell fraction ([4]; 0.003162 µM): 0.0174
- increase in dead-cell fraction ([4]; 0.01 µM): -0.0044
- increase in dead-cell fraction ([4]; 0.03162 µM): -0.0035
- increase in dead-cell fraction ([4]; 0.1 µM): 0.0063
- increase in dead-cell fraction ([4]; 0.3162 µM): 0.02
- increase in dead-cell fraction ([4]; 1 µM): 0.0086
- increase in dead-cell fraction ([4]; 3.162 µM): 0.0015
- increase in dead-cell fraction ([5]; 0.001 µM): -0.0051
- increase in dead-cell fraction ([5]; 0.003162 µM): 0.0054
- increase in dead-cell fraction ([5]; 0.01 µM): 0.0159
- increase in dead-cell fraction ([5]; 0.03162 µM): 0.0271
- increase in dead-cell fraction ([5]; 0.1 µM): 0.0298
- increase in dead-cell fraction ([5]; 0.3162 µM): 0.0411
- increase in dead-cell fraction ([5]; 1 µM): 0.0307
- increase in dead-cell fraction ([5]; 3.162 µM): 0.0469
- increase in dead-cell fraction ([5]; 10 µM): 0.04
- increase in dead-cell fraction (Neratinib/HKI272; 0.0003162 µM): 0.0036
- increase in dead-cell fraction (Neratinib/HKI272; 0.001 µM): -0.0035
- increase in dead-cell fraction (Neratinib/HKI272; 0.003162 µM): 0.0085
- increase in dead-cell fraction (Neratinib/HKI272; 0.01 µM): 0.0152
- increase in dead-cell fraction (Neratinib/HKI272; 0.03162 µM): 0.0297
- increase in dead-cell fraction (Neratinib/HKI272; 0.1 µM): 0.0255
- increase in dead-cell fraction (Neratinib/HKI272; 0.3162 µM): 0.0574
- increase in dead-cell fraction (Neratinib/HKI272; 1 µM): 0.068
- increase in dead-cell fraction (Neratinib/HKI272; 3.162 µM): 0.0933
- increase in dead-cell fraction ([6]; 0.0001 µM): -0.003
- increase in dead-cell fraction ([6]; 0.0003162 µM): 0.0089
- increase in dead-cell fraction ([6]; 0.001 µM): -0.0107
- increase in dead-cell fraction ([6]; 0.003162 µM): 0.0052
- increase in dead-cell fraction ([6]; 0.01 µM): 0.0137
- increase in dead-cell fraction ([6]; 0.03162 µM): 0.0687
- increase in dead-cell fraction ([6]; 0.1 µM): 0.0528
- increase in dead-cell fraction ([6]; 0.3162 µM): 0.0636
- increase in dead-cell fraction ([6]; 1 µM): 0.0458
- increase in dead-cell fraction (LEE011/Ribociclib [7]; 0.001 µM): -0.0065
- increase in dead-cell fraction (LEE011/Ribociclib [7]; 0.003162 µM): -0.0157
- increase in dead-cell fraction (LEE011/Ribociclib [7]; 0.01 µM): -0.0081
- increase in dead-cell fraction (LEE011/Ribociclib [7]; 0.03162 µM): -0.0009
- increase in dead-cell fraction (LEE011/Ribociclib [7]; 0.1 µM): -0.0246
- increase in dead-cell fraction (LEE011/Ribociclib [7]; 0.3162 µM): -0.0198
- increase in dead-cell fraction (LEE011/Ribociclib [7]; 1 µM): -0.0191
- increase in dead-cell fraction (LEE011/Ribociclib [7]; 3.162 µM): -0.0045
- increase in dead-cell fraction (LEE011/Ribociclib [7]; 10 µM): 0.0009
- increase in dead-cell fraction (THZ531; 0.0001 µM): 0.0141
- increase in dead-cell fraction (THZ531; 0.0003162 µM): 0.0051
- increase in dead-cell fraction (THZ531; 0.001 µM): -0.0125
- increase in dead-cell fraction (THZ531; 0.003162 µM): -0.0076
- increase in dead-cell fraction (THZ531; 0.01 µM): -0.0143
- increase in dead-cell fraction (THZ531; 0.03162 µM): -0.0254
- increase in dead-cell fraction (THZ531; 0.1 µM): 0.0083
- increase in dead-cell fraction (THZ531; 0.3162 µM): 0.278
- increase in dead-cell fraction (THZ531; 1 µM): 0.139
- increase in dead-cell fraction (THZ1; 0.0001 µM): -0.0025
- increase in dead-cell fraction (THZ1; 0.0003162 µM): 0.0107
- increase in dead-cell fraction (THZ1; 0.001 µM): -0.0054
- increase in dead-cell fraction (THZ1; 0.003162 µM): 0.0295
- increase in dead-cell fraction (THZ1; 0.01 µM): 0.0559
- increase in dead-cell fraction (THZ1; 0.03162 µM): 0.216
- increase in dead-cell fraction (THZ1; 0.1 µM): 0.224
- increase in dead-cell fraction (THZ1; 0.3162 µM): 0.154
- increase in dead-cell fraction (THZ1; 1 µM): 0.183
- increase in dead-cell fraction (Flavopiridol; 0.0001 µM): 0.0138
- increase in dead-cell fraction (Flavopiridol; 0.0003162 µM): 0.0542
- increase in dead-cell fraction (Flavopiridol; 0.001 µM): 0.0183
- increase in dead-cell fraction (Flavopiridol; 0.003162 µM): -0.0158
- increase in dead-cell fraction (Flavopiridol; 0.01 µM): 0.0161
- increase in dead-cell fraction (Flavopiridol; 0.03162 µM): 0.0472
- increase in dead-cell fraction (Flavopiridol; 0.1 µM): 0.021
- increase in dead-cell fraction (Flavopiridol; 0.3162 µM): -0.002
- increase in dead-cell fraction (Flavopiridol; 1 µM): 0.117
